Measurements: EP2210584A1, “Stable polymeric composition comprising an epothilone and an amphiphilic block copolymer” (priority 2009, dated 2010)

Assay: Detection of degradation products of sagopilone by HPLC chromatogram
Type: physicochemical
Settings: storage of 24 hours at 4°C
Method: The method for measuring the sagopilone content of the micellar dispersions as well as the detection of degradation products is determined by High Performance Liquid Chromatography. The analysis was done on a Agilent 1100 Series chromatography system consisting of a quaternary pump, an autoinjector, a column heater and a UV-detector from Agilent Technologies, Santa Clara, USA .

C=CC[C@H]1C(=O)C(C)(C)[C@@H](O)CC(=O)O[C@H](c2ccc3sc(C)nc3c2)C[C@@H]2O[C@]2(C)CCC[C@H](C)[C@@H]1O [Sagopilone, (1S,3S,7S,10R,11S,12S,16R)-7,11-dihydroxy-10-(prop-2-en-1-yl)-3-(2-methylbenzothiazol-5-yl)-8,8,12,16-tetramethyl-4,17-dioxabicyclo[14.1.0]heptadecane-5,9-dione]
degradation of Sagopilone solubilized within the polymeric micelles: did not degrade
